Source: the CheMixHub viscosity set

Assay: xn = mol fraction of the nth substance listed
Conditions: 101 kPa

CC(O)CCO (stereo not given) + NCCN
viscosity [mPa·s]
Conditions | 298.15 K | 303.15 K | 308.15 K | 313.15 K | 318.15 K
x1 = 0.0339 | 1.64 | 1.4 | 1.3 | 1.21 | 1.04
x1 = 0.069 | 1.98 | 1.66 | 1.56 | 1.42 | 1.23
x1 = 0.1053 | 2.43 | 2.01 | 1.82 | 1.7 | 1.42
x1 = 0.1429 | 3.03 | 2.47 | 2.24 | 2.05 | 1.71
x1 = 0.1819 | 3.82 | 3.07 | 2.73 | 2.54 | 2.05
x1 = 0.2223 | 4.9 | 3.88 | 3.4 | 3.08 | 2.49
x1 = 0.2642 | 6.37 | 4.97 | 4.3 | 3.85 | 3.09
x1 = 0.3078 | 8.35 | 6.46 | 5.45 | 4.85 | 3.81
x1 = 0.353 | 11.2 | 8.5 | 7.1 | 6.21 | 4.83
x1 = 0.4001 | 15.1 | 11.2 | 9.15 | 7.91 | 6.04
x1 = 0.4491 | 20.4 | 14.9 | 12 | 10.2 | 7.56
x1 = 0.5001 | 27.3 | 19.6 | 15.4 | 13.1 | 9.61
x1 = 0.5533 | 36 | 25.4 | 19.7 | 16.4 | 12
x1 = 0.6088 | 46.1 | 32.1 | 24.8 | 20.4 | 14.8
x1 = 0.6667 | 56.3 | 39.4 | 29.9 | 24.5 | 18.2
x1 = 0.7273 | 66.7 | 47.4 | 35.9 | 28.7 | 21.5
x1 = 0.7908 | 77.5 | 56 | 41.7 | 32.4 | 24.4
x1 = 0.8572 | 85.7 | 62 | 46.2 | 35.8 | 26.9
x1 = 0.9269 | 91.6 | 66.1 | 49.3 | 38.2 | 28.6

c1ccncc1 + O
viscosity [mPa·s]
Conditions | 298.15 K | 303.15 K | 308.15 K | 313.15 K | 318.15 K
x1 = 0.0201 | 1.122 | 0.9952 | 0.8906 | 0.8042 | 0.7251
x1 = 0.0503 | 1.379 | 1.214 | 1.078 | 0.9651 | 0.8727
x1 = 0.0701 | 1.532 | 1.342 | 1.187 | 1.058 | 0.9504
x1 = 0.0999 | 1.725 | 1.505 | 1.325 | 1.175 | 1.05
x1 = 0.1203 | 1.837 | 1.6 | 1.405 | 1.244 | 1.11
x1 = 0.1499 | 1.972 | 1.713 | 1.501 | 1.326 | 1.18
x1 = 0.1701 | 2.05 | 1.778 | 1.556 | 1.373 | 1.22
x1 = 0.1999 | 2.139 | 1.853 | 1.619 | 1.426 | 1.266
x1 = 0.2201 | 2.189 | 1.897 | 1.657 | 1.467 | 1.302
x1 = 0.2502 | 2.235 | 1.934 | 1.688 | 1.485 | 1.316
x1 = 0.2701 | 2.253 | 1.949 | 1.701 | 1.496 | 1.326
x1 = 0.2999 | 2.265 | 1.96 | 1.711 | 1.505 | 1.334
x1 = 0.3198 | 2.26 | 1.957 | 1.709 | 1.504 | 1.333
x1 = 0.35 | 2.235 | 1.937 | 1.694 | 1.492 | 1.324
x1 = 0.4002 | 2.15 | 1.87 | 1.64 | 1.45 | 1.289
x1 = 0.4499 | 2.023 | 1.77 | 1.56 | 1.384 | 1.236
x1 = 0.5002 | 1.871 | 1.648 | 1.461 | 1.304 | –
x1 = 0.5998 | 1.559 | 1.395 | 1.255 | 1.134 | –
x1 = 0.7002 | 1.297 | 1.177 | 1.073 | 0.9812 | –
x1 = 0.8004 | 1.109 | 1.018 | 0.9375 | 0.8659 | –
x1 = 0.8999 | 0.983 | 0.9101 | 0.8448 | 0.7862 | –
